The text below walks through data of patent US20070149485A1, “SELECTED DOSAGE FOR THE TREATMENT OF CARDIOVASCULAR AND RELATED PATHOLOGIES” (Medicure International, Inc., priority 2005, published 2007).

Experiment [1] concerns high-risk patients undergoing CABG surgery with cardiopulmonary bypass. Kind of experiment: Intravenous P5P in high-risk patients undergoing CABG surgery (Example 2, protocol of Example 1 repeated). Format: in vivo, human. Particulars: CK-MB cut-off 100 ng/ml. The procedure:
The randomized, double-blind placebo-controlled, dose-ranging, parallel-arm multi-center study on high-risk patients undergoing CABG surgery with cardiopulmonary bypass of Experiment 1 is repeated using a protocol as described in Experiment 1, with the difference that the placebo/drug is administered intravenously, in an intravenous dose pharmacokinetically approximating the dosage given enterally in Experiment 1.
Approximately 3000 high-risk pre-CABG patients are screened and randomized to […], prior to their bypass surgery, as follows. Patients are either placed in a control group (placebo), treated intravenously with 5.00 mg/day of P5P, or treated intravenously with 23.33 mg/day of P5P.
Patients are identified as “high risk” if they had two or more of the following risk factors:
• Age greater than 65 years; • Current smoker; • History of diabetes mellitus requiring treatment other than diet; • Evidence of left ventricular dysfunction or congestive heart failure; • History of a previous non-disabling stroke, transient ischemic attack, or carotid endarterectomy; • Urgent CABG intervention defined as the need to stay in the hospital (although the patient may be operated on within a normal scheduling routine); • History of myocardial infarction that occurred more than 48 hours but less than 6 weeks prior to CABG surgery; • Prior peripheral artery surgery or angioplasty; • Moderate renal dysfunction defined as creatinine>133 μmol/L (1.5 mg/dl), but <250 μmol/L (2.8 mg/dl); and • Presence of at least one asymptomatic carotid artery stenosis (>50%) either in one or two carotid arteries.
The first dose of study medication is administered at 3-10 hours prior to CABG surgery. In the event of surgery delay or rescheduling, a second pre-operative dose of P5P is administered so that all patients receive study medication 3-10 hours before surgery. Treatment continues for 30 days after surgery (post operative day (POD) 30). Patients receive follow-up evaluations up to and including postoperative day on POD 30 and on POD 90.
Patients are measured for combined incidence of cardiovascular death and nonfatal myocardial infarction (MI) up to and including post-operative day 30 (POD 30). Patients are also measured for nonfatal myocardial infarction alone.
All deaths without an identifiable non-cardiovascular cause are considered of cardiovascular origin.
Cerebral infarction (stroke) is defined clinically as any new sudden onset focal neurological deficit lasting at least 24 hours as assessed by a neurologist and after neuroimaging (computed tomography [CT] brain scan or magnetic resonance imaging [MRI]) excludes an intracerebral hemorrhage. […]

For experiment [2], the system named is animal model of ischemic brain injury. The conditions noted are these: animal model of ischemic brain injury (Wang, et al, J. Neurosurg. 2005); cited from earlier work.

`Cc1ncc(COP(=O)(O)O)c(C=O)c1O` [P5P, 3-hydroxy-2-methyl-5-[(phosphonooxy)methyl]-4-pyridine-carboxaldehyde]: the “reducing instances of myocardial infarction” value in experiment [1] (intravenous 5.00 mg/day) and in experiment [1] (intravenous 23.33 mg/day) was “highly effective” each time. Also, the “reducing total incidents (myocardial infarction, cerebral infarction, or death)” value was “highly effective” in experiment [1] (intravenous 5.00 mg/day, better than 23.33 mg/day) and “highly effective” in experiment [1] (intravenous 23.33 mg/day). In addition, in experiment [2], the neuroprotective effects entry is on record as “neuroprotective effects”.
